Experimental data reported in ChEMBL document CHEMBL1201862, “PubChem BioAssay data set” (2004).
Active and inactive are the calls of the source.

Experiments:
Prothrombin = Prothrombin (Homo sapiens, UniProt P00734); experiment: Thrombin 1536 HTS Dose Response Confirmation. [Related pubchem assays: 1046 (Thrombin 1536 HTS; hits were confirmed in this assay)]; type: functional
Coagulation factor XII = molecular target: T1, Coagulation factor XII (Homo sapiens, UniProt P00748); type: functional;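 note: activated factor XIIa alpha cleaving a fluorogenic AMC peptide substrate; inhibitor potency from loss of enzyme activity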
T1 sequence (P00748 whole entry): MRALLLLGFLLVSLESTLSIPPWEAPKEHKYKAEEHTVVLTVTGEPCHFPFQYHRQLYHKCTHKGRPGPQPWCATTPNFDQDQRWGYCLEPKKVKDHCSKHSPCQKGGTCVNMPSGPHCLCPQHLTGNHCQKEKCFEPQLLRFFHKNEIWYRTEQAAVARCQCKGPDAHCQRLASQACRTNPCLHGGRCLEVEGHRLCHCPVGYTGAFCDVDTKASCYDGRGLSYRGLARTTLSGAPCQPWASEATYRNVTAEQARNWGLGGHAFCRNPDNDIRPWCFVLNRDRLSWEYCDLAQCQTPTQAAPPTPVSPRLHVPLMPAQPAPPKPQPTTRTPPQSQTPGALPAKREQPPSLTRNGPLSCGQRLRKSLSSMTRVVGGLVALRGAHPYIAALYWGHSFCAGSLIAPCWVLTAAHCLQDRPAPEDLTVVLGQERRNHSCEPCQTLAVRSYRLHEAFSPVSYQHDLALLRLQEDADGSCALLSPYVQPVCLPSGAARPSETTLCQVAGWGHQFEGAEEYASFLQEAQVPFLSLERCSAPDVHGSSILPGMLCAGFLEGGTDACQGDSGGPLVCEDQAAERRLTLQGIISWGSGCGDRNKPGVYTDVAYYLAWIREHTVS

[1] = human group III sPLA2 inhibitors, dose response, biochemical, QFRET, IC50 (AID 743457);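 note: green fluorescence rise as the enzyme cleaves BODIPY PC-A2 in liposomes; potency for inhibition of the enzyme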
[2] = NIH-3T3 fibroblast cytotoxicity, dose response, cytotoxicity control, cell-based, fluorescence, Alamar Blue, secondary assay (AID 2327); type: functional;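 note: NIH-3T3 mouse fibroblasts cultured with fluconazole at 8 µg/mL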
cells [3] = type: functional, cell-based
cells [4] = type: functional, cell-based; remark: listed apart in the source
[5] = molecular target: T2, Ubiquitin-conjugating enzyme E2 N (Homo sapiens, UniProt P61088); type: functional;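 note: Dose-response confirmation in a TR-FRET assay detecting UBC13-driven polyubiquitin chain formation, inhibition measured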
T2 sequence (P61088 whole entry): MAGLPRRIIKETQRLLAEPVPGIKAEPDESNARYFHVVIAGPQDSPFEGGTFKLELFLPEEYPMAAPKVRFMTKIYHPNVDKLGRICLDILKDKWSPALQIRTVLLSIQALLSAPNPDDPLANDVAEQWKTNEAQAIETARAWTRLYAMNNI

[6] = molecular target: T3, DNA repair protein RAD52 homolog (Homo sapiens, UniProt P43351); type: functional, biochemical
T3 sequence (P43351 whole entry): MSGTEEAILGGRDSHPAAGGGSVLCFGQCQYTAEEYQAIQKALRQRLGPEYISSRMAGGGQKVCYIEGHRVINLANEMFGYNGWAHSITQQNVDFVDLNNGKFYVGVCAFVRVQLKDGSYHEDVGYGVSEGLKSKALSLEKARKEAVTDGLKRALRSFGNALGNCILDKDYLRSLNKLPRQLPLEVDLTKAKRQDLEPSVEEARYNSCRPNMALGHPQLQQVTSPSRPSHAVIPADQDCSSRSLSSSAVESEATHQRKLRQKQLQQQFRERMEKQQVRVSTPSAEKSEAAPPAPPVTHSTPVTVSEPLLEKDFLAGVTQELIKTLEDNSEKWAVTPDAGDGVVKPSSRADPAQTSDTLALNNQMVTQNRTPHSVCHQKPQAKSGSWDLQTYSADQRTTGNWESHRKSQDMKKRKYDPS

[7] = molecular target: T4, Voltage-gated N-type calcium channel alpha-1B subunit/Amyloid beta A4 precursor protein-binding family A member 1 (Homo sapiens, UniProt Q00975+Q02410); type: protein assay
T4 sequence (Q00975 whole entry): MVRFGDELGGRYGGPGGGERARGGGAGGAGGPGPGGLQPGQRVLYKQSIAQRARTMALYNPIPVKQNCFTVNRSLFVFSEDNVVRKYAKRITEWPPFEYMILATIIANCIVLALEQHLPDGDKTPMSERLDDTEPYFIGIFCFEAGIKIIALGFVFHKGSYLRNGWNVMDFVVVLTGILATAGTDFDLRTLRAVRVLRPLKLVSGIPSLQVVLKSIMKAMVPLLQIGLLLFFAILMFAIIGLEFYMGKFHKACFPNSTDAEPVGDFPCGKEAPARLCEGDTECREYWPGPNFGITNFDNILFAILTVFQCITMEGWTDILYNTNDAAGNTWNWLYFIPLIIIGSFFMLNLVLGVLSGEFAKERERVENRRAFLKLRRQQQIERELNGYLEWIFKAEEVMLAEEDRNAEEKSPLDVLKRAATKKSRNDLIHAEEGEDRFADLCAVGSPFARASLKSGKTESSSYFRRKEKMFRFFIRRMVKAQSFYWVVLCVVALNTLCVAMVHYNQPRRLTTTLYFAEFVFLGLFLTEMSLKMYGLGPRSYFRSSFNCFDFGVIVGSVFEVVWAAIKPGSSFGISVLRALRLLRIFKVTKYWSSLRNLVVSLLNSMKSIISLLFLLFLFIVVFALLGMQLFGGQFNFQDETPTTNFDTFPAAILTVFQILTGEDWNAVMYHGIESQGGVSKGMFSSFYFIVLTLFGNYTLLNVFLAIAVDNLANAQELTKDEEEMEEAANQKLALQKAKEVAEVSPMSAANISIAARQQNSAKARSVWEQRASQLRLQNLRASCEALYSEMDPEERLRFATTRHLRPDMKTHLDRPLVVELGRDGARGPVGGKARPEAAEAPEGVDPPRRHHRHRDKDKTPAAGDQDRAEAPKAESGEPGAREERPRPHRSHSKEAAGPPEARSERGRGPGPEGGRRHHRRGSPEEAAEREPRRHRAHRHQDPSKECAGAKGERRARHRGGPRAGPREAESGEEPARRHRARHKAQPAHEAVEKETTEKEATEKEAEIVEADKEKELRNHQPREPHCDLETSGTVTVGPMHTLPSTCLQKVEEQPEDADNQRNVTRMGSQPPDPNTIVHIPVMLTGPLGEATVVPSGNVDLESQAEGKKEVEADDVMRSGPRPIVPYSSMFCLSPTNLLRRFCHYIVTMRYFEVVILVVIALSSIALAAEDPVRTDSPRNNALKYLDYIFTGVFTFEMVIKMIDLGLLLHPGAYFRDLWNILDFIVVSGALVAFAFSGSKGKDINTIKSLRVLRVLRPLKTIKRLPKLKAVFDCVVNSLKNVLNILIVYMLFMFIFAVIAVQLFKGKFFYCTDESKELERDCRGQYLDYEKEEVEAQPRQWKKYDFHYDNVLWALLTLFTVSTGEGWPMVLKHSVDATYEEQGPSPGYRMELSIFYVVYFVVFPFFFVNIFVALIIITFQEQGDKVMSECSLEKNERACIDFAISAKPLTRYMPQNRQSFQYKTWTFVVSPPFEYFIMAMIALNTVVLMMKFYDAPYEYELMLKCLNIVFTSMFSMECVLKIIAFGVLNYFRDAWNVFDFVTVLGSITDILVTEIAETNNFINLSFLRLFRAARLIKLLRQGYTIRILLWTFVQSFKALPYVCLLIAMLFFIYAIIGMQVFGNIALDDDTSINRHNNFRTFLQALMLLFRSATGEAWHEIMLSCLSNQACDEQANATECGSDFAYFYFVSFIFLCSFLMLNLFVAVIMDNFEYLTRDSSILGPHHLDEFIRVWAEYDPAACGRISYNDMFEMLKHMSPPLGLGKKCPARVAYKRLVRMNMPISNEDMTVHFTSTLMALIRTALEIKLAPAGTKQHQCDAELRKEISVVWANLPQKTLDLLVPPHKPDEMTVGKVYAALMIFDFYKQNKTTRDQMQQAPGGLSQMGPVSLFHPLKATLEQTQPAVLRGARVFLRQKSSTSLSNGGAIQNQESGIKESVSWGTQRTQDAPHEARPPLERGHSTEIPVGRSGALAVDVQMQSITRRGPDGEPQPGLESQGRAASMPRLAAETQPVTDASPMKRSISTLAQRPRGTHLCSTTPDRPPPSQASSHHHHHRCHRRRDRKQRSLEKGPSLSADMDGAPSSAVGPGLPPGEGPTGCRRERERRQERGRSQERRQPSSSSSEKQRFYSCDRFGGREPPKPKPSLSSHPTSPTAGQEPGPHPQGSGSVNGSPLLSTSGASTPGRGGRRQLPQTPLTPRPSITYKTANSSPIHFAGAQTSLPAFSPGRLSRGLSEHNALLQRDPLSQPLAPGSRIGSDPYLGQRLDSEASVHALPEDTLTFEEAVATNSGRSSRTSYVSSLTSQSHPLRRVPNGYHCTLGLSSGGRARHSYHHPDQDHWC
T4 sequence (Q02410 whole entry): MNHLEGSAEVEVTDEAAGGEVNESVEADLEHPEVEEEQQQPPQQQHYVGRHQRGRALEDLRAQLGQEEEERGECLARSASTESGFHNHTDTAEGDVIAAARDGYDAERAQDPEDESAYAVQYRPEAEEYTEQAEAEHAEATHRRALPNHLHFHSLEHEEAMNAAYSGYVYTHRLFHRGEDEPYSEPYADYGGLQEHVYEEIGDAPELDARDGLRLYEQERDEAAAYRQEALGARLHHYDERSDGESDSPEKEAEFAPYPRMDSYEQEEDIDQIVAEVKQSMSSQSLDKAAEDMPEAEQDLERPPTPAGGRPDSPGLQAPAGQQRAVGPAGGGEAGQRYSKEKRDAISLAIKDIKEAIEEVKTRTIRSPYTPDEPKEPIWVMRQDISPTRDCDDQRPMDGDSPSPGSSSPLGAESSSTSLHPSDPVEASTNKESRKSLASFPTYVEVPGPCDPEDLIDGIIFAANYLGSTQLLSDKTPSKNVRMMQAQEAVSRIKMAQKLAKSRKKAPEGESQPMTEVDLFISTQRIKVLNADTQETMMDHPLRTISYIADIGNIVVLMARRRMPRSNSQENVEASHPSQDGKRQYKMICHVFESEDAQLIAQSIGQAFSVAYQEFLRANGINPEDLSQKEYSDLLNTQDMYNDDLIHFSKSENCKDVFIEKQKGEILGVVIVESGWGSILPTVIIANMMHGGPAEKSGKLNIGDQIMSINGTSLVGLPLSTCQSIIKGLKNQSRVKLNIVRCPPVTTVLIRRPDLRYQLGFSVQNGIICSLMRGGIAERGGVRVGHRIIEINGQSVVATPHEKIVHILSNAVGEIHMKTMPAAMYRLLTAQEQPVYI

[8] = molecular target: T4, Voltage-gated N-type calcium channel alpha-1B subunit/Amyloid beta A4 precursor protein-binding family A member 1; type: protein assay; remark: listed apart in the source
Cytochrome P450 3A4 = Cytochrome P450 3A4 (Homo sapiens, UniProt P08684); conditions: Potency;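 note: confirmatory qHTS run detecting inhibitors and substrates of CYP3A4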
Sequence of Cytochrome P450 3A4 (P08684 whole entry): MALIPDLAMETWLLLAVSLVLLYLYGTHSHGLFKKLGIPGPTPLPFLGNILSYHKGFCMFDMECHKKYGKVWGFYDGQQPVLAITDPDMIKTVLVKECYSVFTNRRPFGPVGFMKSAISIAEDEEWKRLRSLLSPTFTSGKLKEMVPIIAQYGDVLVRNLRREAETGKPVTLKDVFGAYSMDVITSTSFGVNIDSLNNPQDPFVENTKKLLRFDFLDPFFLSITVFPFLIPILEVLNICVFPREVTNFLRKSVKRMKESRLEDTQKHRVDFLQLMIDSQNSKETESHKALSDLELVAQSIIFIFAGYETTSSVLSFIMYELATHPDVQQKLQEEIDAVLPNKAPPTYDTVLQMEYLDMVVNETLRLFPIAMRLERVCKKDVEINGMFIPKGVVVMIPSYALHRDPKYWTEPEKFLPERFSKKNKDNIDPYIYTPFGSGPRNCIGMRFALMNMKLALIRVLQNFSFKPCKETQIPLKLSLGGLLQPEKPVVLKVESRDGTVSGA

Paired box protein Pax-8 = Paired box protein Pax-8 (Homo sapiens, UniProt Q06710); experiment: inhibitors of PAX8-driven TPO luciferase reporter, dose response, RMG-I cells, cherry-pick (AID 687027); type: functional, cell-based;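 note: luciferase reporter driven by Pax8 target thyroperoxidase promoter measured by SteadyGlo luminescence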
Sequence of Paired box protein Pax-8 (Q06710 whole entry): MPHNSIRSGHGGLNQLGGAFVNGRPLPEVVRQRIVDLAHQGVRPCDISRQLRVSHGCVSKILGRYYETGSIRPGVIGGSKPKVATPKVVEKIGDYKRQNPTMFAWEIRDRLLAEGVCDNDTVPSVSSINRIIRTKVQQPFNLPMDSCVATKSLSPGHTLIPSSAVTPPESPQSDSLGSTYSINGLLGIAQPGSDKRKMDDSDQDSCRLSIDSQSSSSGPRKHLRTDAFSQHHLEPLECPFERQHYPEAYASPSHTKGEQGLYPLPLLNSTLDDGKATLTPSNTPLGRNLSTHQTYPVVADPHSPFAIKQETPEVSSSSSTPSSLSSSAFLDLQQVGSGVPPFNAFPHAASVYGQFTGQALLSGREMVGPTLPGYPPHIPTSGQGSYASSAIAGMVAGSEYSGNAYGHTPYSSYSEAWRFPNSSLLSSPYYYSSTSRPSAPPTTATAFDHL

[9] = IGROV1 ovarian cancer cell cytotoxicity, dose response, PAX8 inhibitor project, plate reader, dry powder samples (AID 743043); type: functional, cell-based; conditions: IGROV-1
[10] = cytotoxicity in OVCAR8 ovarian cancer cells, dose response, PAX8 project, cell-based, plate reader, dry powder samples (AID 743197); type: functional; conditions: OVCAR-8
[11] = molecular target: T5, Calpain-2 catalytic subunit (Sus scrofa, UniProt P43367); experiment: pig calpain II inhibitor potency, dose response, biochemical, fluorogenic peptide substrate (AID 1420); type: functional
T5 sequence (P43367 whole entry): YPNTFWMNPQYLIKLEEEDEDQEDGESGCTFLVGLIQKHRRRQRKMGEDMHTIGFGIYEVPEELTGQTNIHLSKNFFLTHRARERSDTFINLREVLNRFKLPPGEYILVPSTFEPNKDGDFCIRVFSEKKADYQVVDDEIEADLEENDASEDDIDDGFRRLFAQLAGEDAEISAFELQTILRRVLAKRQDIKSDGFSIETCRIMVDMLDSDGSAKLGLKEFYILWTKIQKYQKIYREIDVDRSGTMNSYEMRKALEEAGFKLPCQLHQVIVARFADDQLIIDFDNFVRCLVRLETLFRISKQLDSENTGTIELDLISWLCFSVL

Cytochrome P450 2C9 = Cytochrome P450 2C9 (Homo sapiens, UniProt P11712)
Sequence of Cytochrome P450 2C9 (P11712 whole entry): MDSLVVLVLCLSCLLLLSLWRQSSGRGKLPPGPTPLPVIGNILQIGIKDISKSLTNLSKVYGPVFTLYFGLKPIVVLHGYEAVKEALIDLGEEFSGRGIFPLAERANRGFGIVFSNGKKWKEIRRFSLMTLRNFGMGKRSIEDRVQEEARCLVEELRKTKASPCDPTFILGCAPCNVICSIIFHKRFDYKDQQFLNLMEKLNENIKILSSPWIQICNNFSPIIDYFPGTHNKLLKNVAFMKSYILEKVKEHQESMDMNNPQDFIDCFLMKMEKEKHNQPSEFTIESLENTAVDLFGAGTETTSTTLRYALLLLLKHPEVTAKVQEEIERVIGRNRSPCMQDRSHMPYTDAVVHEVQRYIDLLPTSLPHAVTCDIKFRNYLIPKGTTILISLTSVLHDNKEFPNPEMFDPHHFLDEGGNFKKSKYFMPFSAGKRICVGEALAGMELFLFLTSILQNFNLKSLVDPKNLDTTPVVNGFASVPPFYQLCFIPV

Question: Which IC50 (Prothrombin) does the source give for `CCn1c(C)nc2cc(C(=O)NN=C(S)Nc3ccc(C)cc3)ccc21` here?
Answer: The IC50 was > 50 µM (not active).

Question: What about the IC50 (Coagulation factor XII) of the same compound?
Answer: The IC50 was > 50 µM (inactive).

Question: For `COc1ccc(CCC(=O)NN=C(S)Nc2cccc(C(C)=O)c2)cc1`, which IC50 [1] is on record?
Answer: The IC50 was > 122 µM (inactive).

Question: Which EC50 [2] does the source give for `CCOC(=O)c1c(-c2ccccc2)oc2ccc(OCC(O)CN(C)C)cc12` (stereo unspecified) here?
Answer: Its EC50 is 10 µM (inconclusive).

Question: And the EC50 (cells [3])?
Answer: The EC50 was > 350 µM (not active).

Question: What about the EC50 (cells [4]) of the same compound?
Answer: Its EC50 is 21.7 µM (active).

Question: What about the IC50 [5] of the same compound?
Answer: Its IC50 is > 20 µM (inactive).

Question: What about the AC50 [6] of the same compound?
Answer: Its AC50 is 15.5 µM (active).

Question: With `COc1ccc2nc(NC(=O)/C=C/c3ccc4c(c3)OCO4)sc2c1` as the compound, how does the IC50 [7] read?
Answer: The IC50 was 19.5 µM (active).

Question: And the IC50 [8]?
Answer: Its IC50 is 41.5 µM (active).

Question: Which AC50 (Cytochrome P450 3A4) does the source give for `C[C@]12CC[C@@H]3c4ccc(OC(=O)c5ccccc5)cc4CC[C@H]3[C@@H]1CCC2=O` here?
Answer: The AC50 was 7.94 µM (inconclusive).

Question: Which AC50 (Cytochrome P450 3A4) does the source give for `Nc1c(Br)cc([N+](=O)[O-])cc1[N+](=O)[O-]` here?
Answer: Its AC50 is 25.1 µM (inconclusive).

Question: Which AC50 [6] does the source give for `Cc1ccc(F)cc1-c1cc2nc(NCCCN(C)C)n(C)c(=O)c2s1` here?
Answer: The AC50 was 19.2 µM (active).

Question: What does the source list for `C[C@H](CO)N1C[C@H](C)[C@@H](CN(C)Cc2ccc(Oc3ccccc3)cc2)Oc2ccc(NS(=O)(=O)c3ccc(F)cc3)cc2CC1=O`?
Answer: AC50 (Paired box protein Pax-8): 6.47 µM (active); AC50 [9]: 40 µM (active); AC50 [10]: 63.3 µM (active)

Question: For `CN(C[C@H]1N[C@@H](CO)[C@@H]1c1ccc(-c2cccc(F)c2)cc1)S(C)(=O)=O`, which AC50 (Paired box protein Pax-8) is on record?
Answer: The AC50 was 10.3 µM (active).

Question: What about the AC50 [9] of the same compound?
Answer: The AC50 was 14.9 µM (active).

Question: And the AC50 [10]?
Answer: Its AC50 is 23.7 µM (active).

Question: With `OC1CC2CCC(C1)N2CCCN1c2ccccc2Sc2ccc(Cl)cc21` (stereo unspecified) as the compound, how does the AC50 [6] read?
Answer: The AC50 was 12.9 µM (active).

Question: What does the source list for `CCOC(=O)C(/C=N/c1cccc(C)c1C)=C(/O)OCC`?
Answer: IC50 (Prothrombin): > 50 µM (not active); IC50 [11]: 14 µM (not active); AC50 (Cytochrome P450 2C9): inconclusive

Question: With `N=C(N)Nc1ccc2[nH]c3c(c2c1)C[C@@]1(O)[C@H]2Cc4ccc(O)c5c4[C@@]1(CCN2CC1CC1)[C@H]3O5` as the compound, how does the AC50 [6] read?
Answer: Its AC50 is 8.43 µM (active).

Question: For `CC1=C(C(=O)OCc2ccccc2)C(c2ccc(C3CCCCC3)cc2)NC(=O)N1CCCCCC(=O)O` (stereo unspecified), which AC50 (Cytochrome P450 3A4) is on record?
Answer: The AC50 was 7.94 µM (inconclusive).

Question: For `O=[N+]([O-])c1ccc2c3c(cccc13)CC2`, which AC50 (Cytochrome P450 3A4) is on record?
Answer: The AC50 was 31.6 µM (inconclusive).
